Key:
R. SANGUINEUS = experiment: Comparative tick control on dogs, R. sanguineus, percent control; assay type: in vivo, Rhipicephalus sanguineus; parameters: Percent control R. sanguineus: concentration or dose not given beside the values
Source text: (§1) The purpose of this study was to was to determine comparative flea and tick control over a 30 day interval of a combination application of a pyrethroid and a chloronicotinyl insecticide applied dermally to dogs. This combination was compared with permethrin alone, imidacloprid alone, fipronil and selamectin. The latter two compounds are present in products that currently carry claims for both tick and flea control
(§2) Thirty-six dogs were divided into six groups of 6 dogs per group. Each dog received a single topically-applied treatment of the either “Kiltix”, a product available from Bayer Corporation containing 45% w/w permethrin, Advantage®, a product available from Bayer Corporation containing 9.1% w/w imidacloprid, a combination of Kiltix and Advantage containing 45% w/w permethrin+9.1% w/w imidacloprid, Top Spot), a product available from Merial containing 9.7% fipronil or Revolution®, a product available from Pfizer Inc. containing 12% w/v selamectin in accordance with the appropriate dose and label instructions for the various product applications. Control dogs remained untreated. All products were provided in the commercial unit dose applicator tubes.
(§3) The dogs were bathed with a mild non-medicated shampoo and thoroughly combed to remove any existing fleas or ticks 7 to 14 days prior to treatment. The dogs were infested with 100 unfed adult ticks (50 Dermacentor variabilis and 50 Rhipiciphalus sanguineus) and 100 unfed adult fleas on Day −3. Live fleas and ticks were counted on Day −1. The dogs were ranked according to total pretreatment live tick counts from highest to lowest. The 36 dogs with the highest counts were selected for the study. Each consecutive group of 6 dogs comprised one block. Treatment was randomly assigned within each block of dogs.
(§4) Each dog was examined visually for fleas and ticks on Days 1, 7, 14, 21, and 28 following treatment. The hair was parted with the thumbs and fingers to count fleas and ticks. Live tick counts were recorded by species. Live ticks only were counted visually on Days 2, 8, 15, 22, and 29. The dogs were combed on Days 3, 9, 16, 23, and 30. All remaining live fleas and ticks were counted and removed.

[1] = test system: both species of ticks (D. variabilis and R. sanguineus); experiment: Tick control on dogs, both species together; assay type: in vivo, Dermacentor variabilis and Rhipicephalus sanguineus; settings: single topical treatment
Source text: as §1
Thirty-six dogs were divided into six groups of 6 dogs per group. […]
The dogs were bathed with a mild non-medicated shampoo and thoroughly combed to remove any existing fleas or ticks 7 to 14 days prior to treatment. […] Live fleas and ticks were counted on Day −1. […]
Each dog was examined visually for fleas and ticks on Days 1, 7, 14, 21, and 28 following treatment. […] Live tick counts were recorded by species. Live ticks only were counted visually on Days 2, 8, 15, 22, and 29. […] All remaining live fleas and ticks were counted and removed.

D. VARIABILIS = experiment: Comparative tick control on dogs, D. variabilis, percent control; assay type: in vivo, Dermacentor variabilis; parameters: concentration or dose not given beside the values
Source text: as §1, §2, §3, §4

FLEAS (Siphoneptera) = experiment: Comparative flea control on dogs, percent control; assay type: in vivo; parameters: Percent control fleas: concentration or dose not given beside the values
Source text: as §1, §2, §3, §4

[2] = Study Day 1, single topical treatment
[3] = Study Day 2, single topical treatment
[4] = Study Day 3, single topical treatment
[5] = Study Day 7, single topical treatment
[6] = Study Day 8, single topical treatment
[7] = Study Day 9, single topical treatment
[8] = Study Day 14, single topical treatment
[9] = Study Day 15, single topical treatment
[10] = Study Day 16, single topical treatment
[11] = Study Day 21, single topical treatment
[12] = Study Day 22, single topical treatment
[13] = Study Day 23, single topical treatment
[14] = Study Day 28, single topical treatment

CC1(C)C(C=C(Cl)Cl)C1C(=O)OCc1cccc(Oc2ccccc2)c1 (stereo not drawn) [Permethrin]
Percent control R. sanguineus (R. SANGUINEUS; [2]): 72.7%
Percent control R. sanguineus (R. SANGUINEUS; [3]): 75.0%
Percent control R. sanguineus (R. SANGUINEUS; [4]): 85.0%
Percent control R. sanguineus (R. SANGUINEUS; [5]): 99.4%
Percent control R. sanguineus (R. SANGUINEUS; [6]): 100%
Percent control R. sanguineus (R. SANGUINEUS; [7]): 99.0%
Percent control R. sanguineus (R. SANGUINEUS; [8]): 95.2%
Percent control R. sanguineus (R. SANGUINEUS; [9]): 98.9%
Percent control R. sanguineus (R. SANGUINEUS; [10]): 99.4%
Percent control R. sanguineus (R. SANGUINEUS; [11]): 89.4%
Percent control R. sanguineus (R. SANGUINEUS; [12]): 91.7%
Percent control R. sanguineus (R. SANGUINEUS; [13]): 91.5%
Percent control R. sanguineus (R. SANGUINEUS; [14]): 68.6%
time required to approach a 100% killing of ticks [1]: 7 days
Percent control D. variabilis (D. VARIABILIS; [2]): 36.2%
Percent control D. variabilis (D. VARIABILIS; [3]): 53.9%
Percent control D. variabilis (D. VARIABILIS; [4]): 75.3%
Percent control D. variabilis (D. VARIABILIS; [5]): 95.2%
Percent control D. variabilis (D. VARIABILIS; [6]): 96.1%
Percent control D. variabilis (D. VARIABILIS; [7]): 97.1%
Percent control D. variabilis (D. VARIABILIS; [8]): 91.5%
Percent control D. variabilis (D. VARIABILIS; [9]): 92.9%
Percent control D. variabilis (D. VARIABILIS; [10]): 96.8%
Percent control D. variabilis (D. VARIABILIS; [11]): 90.8%
Percent control D. variabilis (D. VARIABILIS; [12]): 85.1%
Percent control D. variabilis (D. VARIABILIS; [13]): 89.3%
Percent control D. variabilis (D. VARIABILIS; [14]): 79.3%
Percent control fleas (FLEAS (Siphoneptera); Day 1, single topical treatment): 89.8%
Percent control fleas (FLEAS (Siphoneptera); Day 3, single topical treatment): 93.9%
Percent control fleas (FLEAS (Siphoneptera); Day 7, single topical treatment): 79.4%
Percent control fleas (FLEAS (Siphoneptera); Day 9, single topical treatment): 87.8%
Percent control fleas (FLEAS (Siphoneptera); Day 14, single topical treatment): 71.9%
Percent control fleas (FLEAS (Siphoneptera); Day 16, single topical treatment): 65.1%
Percent control fleas (FLEAS (Siphoneptera); Day 21, single topical treatment): 52.9%
Percent control fleas (FLEAS (Siphoneptera); Day 23, single topical treatment): 41.9%
Percent control fleas (FLEAS (Siphoneptera); Day 28, single topical treatment): 43.9%
Percent control fleas (FLEAS (Siphoneptera); Day 30, single topical treatment): 7.7%
Percent control fleas (FLEAS (Siphoneptera); Day −1 (pretreatment count)): 1.5%
killing of fleas (in words) (FLEAS (Siphoneptera); from day 1 through day 21): some killing effect on fleas

Source: patent US20080033017A1, “COMPOSITIONS FOR ENHANCED ACARICIDAL ACTIVITY” (priority 2000, published 2008)
